# In PubChem BioAssay (NCI):
#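 Each compound was tested at five concentrations against cells in 96-well plates for 48 hours. Here, GI50 denotes the concentration required for 50% inhibition of growth. TGI marks complete inhibition of growth.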
# Assays:
# Assay in all cases: growth of human tumour cells (NCI), 48 h
# NCI-H460 lung = tested on: NCI-H460 lung
# DU-145 prostate = tested on: DU-145 prostate
# OVCAR-5 ovarian = tested on: OVCAR-5 ovarian
# NCI/ADR-RES ovarian = tested on: NCI/ADR-RES ovarian
# EKVX NSCLC = tested on: EKVX NSCLC
# PC-3 prostate = tested on: PC-3 prostate
# HL-60(TB) leukemia = tested on: HL-60(TB) leukemia
# LOX IMVI melanoma = tested on: LOX IMVI melanoma
# SR leukemia = tested on: SR leukemia
smiles,measurement,setting,value
Cc1nc2c(o1)C(=O)c1ccccc1C2=NC1CCCCC1N (stereo not drawn),TGI,NCI-H460 lung,3.15 µM
same,TGI,DU-145 prostate,2.8 µM
same,TGI,OVCAR-5 ovarian,3.24 µM
same,TGI,NCI/ADR-RES ovarian,1.2 µM
same,TGI,EKVX NSCLC,2.92 µM
same,TGI,PC-3 prostate,3.46 µM
same,TGI,HL-60(TB) leukemia,0.749 µM
same,TGI,LOX IMVI melanoma,0.66 µM
COc1cc2cc(Oc3ccc(NC(=O)Nc4ccc(F)c(C(F)(F)F)c4)cc3)c(C)nc2cc1OCCN1CCCCC1,GI50,NCI-H460 lung,1.89 µM
same,TGI,NCI-H460 lung,3.6 µM
same,GI50,DU-145 prostate,1.75 µM
same,TGI,DU-145 prostate,3.2 µM
same,GI50,OVCAR-5 ovarian,1.72 µM
same,TGI,OVCAR-5 ovarian,3.1 µM
same,GI50,PC-3 prostate,1.45 µM
same,TGI,PC-3 prostate,3.05 µM
same,GI50,HL-60(TB) leukemia,1.91 µM
same,TGI,HL-60(TB) leukemia,3.81 µM
O=C1NCC2(CCNCC2)N1c1ccccc1,TGI,NCI-H460 lung,> 100 µM
same,TGI,DU-145 prostate,> 100 µM
same,TGI,OVCAR-5 ovarian,> 100 µM
same,TGI,NCI/ADR-RES ovarian,> 100 µM
same,TGI,EKVX NSCLC,> 100 µM
same,TGI,PC-3 prostate,> 100 µM
same,TGI,HL-60(TB) leukemia,> 100 µM
same,TGI,LOX IMVI melanoma,> 100 µM
same,TGI,SR leukemia,> 100 µM
O=C1C(C(O)(C(F)(F)Cl)C(F)(F)Cl)CCC1C(O)(C(F)(F)Cl)C(F)(F)Cl (stereo not drawn),TGI,NCI-H460 lung,> 10 µM
same,TGI,DU-145 prostate,> 10 µM
same,TGI,OVCAR-5 ovarian,> 10 µM
same,TGI,NCI/ADR-RES ovarian,> 10 µM
same,TGI,EKVX NSCLC,> 10 µM
same,TGI,PC-3 prostate,> 10 µM
same,TGI,HL-60(TB) leukemia,> 10 µM
same,TGI,LOX IMVI melanoma,> 10 µM
same,TGI,SR leukemia,> 10 µM
Cc1ccc(-c2sc(-c3ccc(C)cc3)c3c2C2CCC3C2)cc1,TGI,NCI-H460 lung,> 50 µM
same,TGI,DU-145 prostate,> 50 µM
same,TGI,OVCAR-5 ovarian,> 50 µM
same,TGI,NCI/ADR-RES ovarian,> 50 µM
same,TGI,EKVX NSCLC,> 50 µM
same,TGI,PC-3 prostate,> 50 µM
same,TGI,HL-60(TB) leukemia,> 50 µM
same,TGI,LOX IMVI melanoma,> 50 µM
same,TGI,SR leukemia,> 50 µM
CCOC(=O)c1c(O)[nH]c(=O)c(CC)c1C,TGI,NCI-H460 lung,> 100 µM
same,TGI,DU-145 prostate,> 100 µM
same,TGI,OVCAR-5 ovarian,> 100 µM
same,TGI,NCI/ADR-RES ovarian,> 100 µM
same,TGI,EKVX NSCLC,> 100 µM
same,TGI,PC-3 prostate,> 100 µM
same,TGI,HL-60(TB) leukemia,> 100 µM
same,TGI,LOX IMVI melanoma,> 100 µM
CC(=O)OCCC1c2ccccc2-n2nc(-c3ccccc3)c(O)c21 (stereo not drawn),TGI,NCI-H460 lung,28.3 µM
same,TGI,DU-145 prostate,41.1 µM
same,TGI,OVCAR-5 ovarian,38.7 µM
same,TGI,NCI/ADR-RES ovarian,47 µM
same,TGI,EKVX NSCLC,36 µM
same,TGI,PC-3 prostate,34.3 µM
same,TGI,HL-60(TB) leukemia,38.4 µM
same,TGI,LOX IMVI melanoma,27.4 µM
same,TGI,SR leukemia,38.7 µM
CN(C)CCOc1ccc(I)cc1Cc1ccccc1,TGI,NCI-H460 lung,26.8 µM
same,TGI,DU-145 prostate,31.6 µM
same,TGI,OVCAR-5 ovarian,29.7 µM
same,TGI,NCI/ADR-RES ovarian,29.8 µM
same,TGI,EKVX NSCLC,28.8 µM
same,TGI,PC-3 prostate,20.5 µM
same,TGI,HL-60(TB) leukemia,18.1 µM
same,TGI,LOX IMVI melanoma,19.2 µM
same,TGI,SR leukemia,7.81 µM
CCOC(=O)N1CCN(Cc2cc(=O)n3cc(C)ccc3n2)CC1,TGI,NCI-H460 lung,> 100 µM
same,TGI,DU-145 prostate,> 100 µM
same,TGI,OVCAR-5 ovarian,> 100 µM
same,TGI,NCI/ADR-RES ovarian,> 100 µM
same,TGI,EKVX NSCLC,> 100 µM
same,TGI,PC-3 prostate,> 100 µM
same,TGI,HL-60(TB) leukemia,> 100 µM
same,TGI,LOX IMVI melanoma,> 100 µM
same,TGI,SR leukemia,> 100 µM
CC(NC1=CC(=O)c2ncccc2C1=O)C(O)c1ccccc1 (stereo not drawn),TGI,NCI-H460 lung,3.22 µM
same,TGI,DU-145 prostate,16.6 µM
same,TGI,OVCAR-5 ovarian,29.3 µM
same,TGI,NCI/ADR-RES ovarian,43.1 µM
same,TGI,EKVX NSCLC,29.5 µM
same,TGI,PC-3 prostate,70.5 µM
same,TGI,HL-60(TB) leukemia,16.5 µM
same,TGI,LOX IMVI melanoma,13.3 µM
same,TGI,SR leukemia,> 100 µM
O=C(CCCN1CCC2(CC1)C(=O)NC(=O)N2c1ccccc1)c1ccc(F)cc1,TGI,NCI-H460 lung,> 100 µM
same,TGI,DU-145 prostate,> 100 µM
same,TGI,OVCAR-5 ovarian,> 100 µM
same,TGI,NCI/ADR-RES ovarian,> 100 µM
same,TGI,EKVX NSCLC,> 100 µM
same,TGI,PC-3 prostate,> 100 µM
same,TGI,HL-60(TB) leukemia,> 100 µM
same,TGI,LOX IMVI melanoma,> 100 µM
same,TGI,SR leukemia,> 100 µM
